Tests used:
[1] = system: three-dimensional skin model; assay: Skin irritation test: MTT cytotoxicity on three-dimensional cultured skin model; assay type: cell-based; settings: test substance in PBS pH 7, 1 hour exposure, 16 hours incubation, read from graph
Method: Using a three-dimensional skin model (trade name: Three-dimensional cultured skin model, manufactured by Gunze), skin irritation tests were performed. […] The test substances were adjusted with PBS (Phosphate Buffer Saline, pH 7) so that they were in various concentrations. To the thus-adjusted test substances was exposed the skin model for 1 hour. Thereafter, the test substances were washed and incubated for 16 hours in a medium attached to the above-described three-dimensional skin model. After the incubation, a solution of MTT (3-(4,5-dimethylthiazol-2-yl)-2,5-diphenyltetrazolium bromide) was added and pigments were extracted with isopropanol rendered acidic with hydrochloric acid, followed by measurement of absorbance at a wavelength of 570 nm. […] This value was called B. The MTT solution was added to PBS and extraction was performed similarly. Absorbance of the extract measured at a wavelength of 570 nm was named C. From these values was calculated cytotoxicity. Calculation was made according to the following equation. Cytotoxicity (%) = (1-(A-c)/(B-C)) x 100 [formula]
Plotting the concentration of a test substance on the axis of abscissa and cytotoxicity on the axis of ordinate, a graph was obtained, from which the concentration of a test compound at 50% cytotoxicity was read.

[2] = Turbidity test of surfactin solutions with alkaline earth metal, judged visually after storage; assay type: physicochemical; set-up: key: -: Not turbid; +: Turbid; settings: 40°C for 7 days
Method: (§1) Samples were prepared by dissolving surfactin sodium salt in a concentration of 0 or 0.2% and calcium chloride dihydrate in a calcium concentration of 0, 10, or 20 ppm in each of solvents described below, and each solution was charged in a screw vial and sealed, which was then left to stand at 40°C for 7 days. After 7 days, the turbidity of each sample was judged visually.
as §1, with “dissolving 0.2%” for “dissolving”, “salt” for “salt in a concentration of 0 or 0.2%”, “magnesium” for “calcium”
(§2) Samples were prepared by dissolving 0.2% surfactin sodium salt and calcium chloride dihydrate in a calcium concentration of 0.1, 1, or 10 ppm in the solvent described below and further disodium edetate was added in an amount of 0, 0.0001, 0.001, 0.01, 0.1, 0.2, 1, or 3%, respectively. Then, each solution was charged in a screw vial and sealed, which was then left to stand at 40°C for 7 days. After 7 days, the turbidity of each sample was judged visually. […]
as §2, with “sodium citrate” for “disodium edetate”

[3] = Surface tension test (plate method); assay type: physicochemical; settings: 0.1 wt% in water, 25°C
Method: The dried medium preparation and purified surfactin sodium salt were each dissolved in water in an amount of 0.1 wt% and their ability of decreasing surface tension was tested. […]

[4] = Turbidity test of surfactin solutions with alkaline earth metal, judged visually after storage; assay type: physicochemical; set-up: key: -: Not turbid; ±: Slightly turbid; +: Turbid; settings: 40°C for 7 days
Method: as §1
as §1, with “dissolving 0.2%” for “dissolving”, “salt” for “salt in a concentration of 0 or 0.2%”, “magnesium” for “calcium”
as §2
as §2, with “sodium citrate” for “disodium edetate”

For surfactin sodium salt, the “Concentration of surfactant at 50% cytotoxicity” value [1] was 24.4%, the turbidity ([2]; 0.2% surfactin sodium salt in Solvent 1 (deionized water), magnesium 0 ppm) was “-” and the turbidity ([2]; 0.2% surfactin sodium salt in Solvent 1 (deionized water), magnesium 10 ppm) was “+”. The turbidity ([2]; 0.2% surfactin sodium salt in Solvent 1 (deionized water), magnesium 20 ppm) was “+”, the turbidity ([2]; 0.2% surfactin sodium salt in Solvent 2 (7% Ethanol, 93% deionized water), magnesium 0 ppm) was “-” and the turbidity ([2]; 0.2% surfactin sodium salt in Solvent 3 (7% Ethanol, 5% glycerin, 5% 1,3-butylene glycol, 83% deionized water), magnesium 0 ppm) was “-”. The turbidity ([2]; 0.2% surfactin sodium salt, sodium citrate 0%, calcium 0.1 ppm, solvent 7% Ethanol, 5% glycerin, 5% 1,3-butylene glycol, 83% deionized water) was “-”, the turbidity ([2]; 0.2% surfactin sodium salt, sodium citrate 0%, calcium 1 ppm, solvent 7% Ethanol, 5% glycerin, 5% 1,3-butylene glycol, 83% deionized water) was “+” and the turbidity ([2]; 0.2% surfactin sodium salt, sodium citrate 0%, calcium 10 ppm, solvent 7% Ethanol, 5% glycerin, 5% 1,3-butylene glycol, 83% deionized water) was “+”. For the same substance, the turbidity ([2]; 0.2% surfactin sodium salt, sodium citrate 0.0001%, calcium 0.1 ppm, solvent 7% Ethanol, 5% glycerin, 5% 1,3-butylene glycol, 83% deionized water) was “-”, the turbidity ([2]; 0.2% surfactin sodium salt, sodium citrate 0.0001%, calcium 10 ppm, solvent 7% Ethanol, 5% glycerin, 5% 1,3-butylene glycol, 83% deionized water) was “+” and the turbidity ([2]; 0.2% surfactin sodium salt, sodium citrate 0.001%, calcium 0.1 ppm, solvent 7% Ethanol, 5% glycerin, 5% 1,3-butylene glycol, 83% deionized water) was “-”. For the same substance, the turbidity ([2]; 0.2% surfactin sodium salt, sodium citrate 0.001%, calcium 1 ppm, solvent 7% Ethanol, 5% glycerin, 5% 1,3-butylene glycol, 83% deionized water) was “-”, the turbidity ([2]; 0.2% surfactin sodium salt, sodium citrate 0.001%, calcium 10 ppm, solvent 7% Ethanol, 5% glycerin, 5% 1,3-butylene glycol, 83% deionized water) was “+” and the turbidity ([2]; 0.2% surfactin sodium salt, sodium citrate 0.01%, calcium 0.1 ppm, solvent 7% Ethanol, 5% glycerin, 5% 1,3-butylene glycol, 83% deionized water) was “-”. The turbidity ([2]; 0.2% surfactin sodium salt, sodium citrate 0.01%, calcium 1 ppm, solvent 7% Ethanol, 5% glycerin, 5% 1,3-butylene glycol, 83% deionized water) was “-”, the turbidity ([2]; 0.2% surfactin sodium salt, sodium citrate 0.01%, calcium 10 ppm, solvent 7% Ethanol, 5% glycerin, 5% 1,3-butylene glycol, 83% deionized water) was “-” and the turbidity ([2]; 0.2% surfactin sodium salt, sodium citrate 0.1%, calcium 0.1 ppm, solvent 7% Ethanol, 5% glycerin, 5% 1,3-butylene glycol, 83% deionized water) was “-”. For the same substance, the turbidity ([2]; 0.2% surfactin sodium salt, sodium citrate 0.1%, calcium 1 ppm, solvent 7% Ethanol, 5% glycerin, 5% 1,3-butylene glycol, 83% deionized water) was “-”, the turbidity ([2]; 0.2% surfactin sodium salt, sodium citrate 0.1%, calcium 10 ppm, solvent 7% Ethanol, 5% glycerin, 5% 1,3-butylene glycol, 83% deionized water) was “-” and the turbidity ([2]; 0.2% surfactin sodium salt, sodium citrate 0.2%, calcium 0.1 ppm, solvent 7% Ethanol, 5% glycerin, 5% 1,3-butylene glycol, 83% deionized water) was “-”. The turbidity ([2]; 0.2% surfactin sodium salt, sodium citrate 0.2%, calcium 1 ppm, solvent 7% Ethanol, 5% glycerin, 5% 1,3-butylene glycol, 83% deionized water) was “-”, the turbidity ([2]; 0.2% surfactin sodium salt, sodium citrate 0.2%, calcium 10 ppm, solvent 7% Ethanol, 5% glycerin, 5% 1,3-butylene glycol, 83% deionized water) was “-” and the turbidity ([2]; 0.2% surfactin sodium salt, sodium citrate 1%, calcium 0.1 ppm, solvent 7% Ethanol, 5% glycerin, 5% 1,3-butylene glycol, 83% deionized water) was “-”. For the same substance, the turbidity ([2]; 0.2% surfactin sodium salt, sodium citrate 1%, calcium 1 ppm, solvent 7% Ethanol, 5% glycerin, 5% 1,3-butylene glycol, 83% deionized water) was “-”, the turbidity ([2]; 0.2% surfactin sodium salt, sodium citrate 1%, calcium 10 ppm, solvent 7% Ethanol, 5% glycerin, 5% 1,3-butylene glycol, 83% deionized water) was “-” and the turbidity ([2]; 0.2% surfactin sodium salt, sodium citrate 3%, calcium 0.1 ppm, solvent 7% Ethanol, 5% glycerin, 5% 1,3-butylene glycol, 83% deionized water) was “-”. For the same substance, the turbidity ([2]; 0.2% surfactin sodium salt, sodium citrate 3%, calcium 1 ppm, solvent 7% Ethanol, 5% glycerin, 5% 1,3-butylene glycol, 83% deionized water) was “-”, the turbidity ([2]; 0.2% surfactin sodium salt, sodium citrate 3%, calcium 10 ppm, solvent 7% Ethanol, 5% glycerin, 5% 1,3-butylene glycol, 83% deionized water) was “-” and the turbidity ([2]; 0.2% surfactin sodium salt, sodium edetate 0%, calcium 0.1 ppm, solvent 7% Ethanol, 5% glycerin, 5% 1,3-butylene glycol, 83% deionized water) was “-”. For the same substance, the turbidity ([2]; 0.2% surfactin sodium salt, sodium edetate 0%, calcium 1 ppm, solvent 7% Ethanol, 5% glycerin, 5% 1,3-butylene glycol, 83% deionized water) was “+”, the turbidity ([2]; 0.2% surfactin sodium salt, sodium edetate 0%, calcium 10 ppm, solvent 7% Ethanol, 5% glycerin, 5% 1,3-butylene glycol, 83% deionized water) was “+” and the turbidity ([2]; 0.2% surfactin sodium salt, sodium edetate 0.0001%, calcium 0.1 ppm, solvent 7% Ethanol, 5% glycerin, 5% 1,3-butylene glycol, 83% deionized water) was “-”. For the same substance, the turbidity ([2]; 0.2% surfactin sodium salt, sodium edetate 0.0001%, calcium 10 ppm, solvent 7% Ethanol, 5% glycerin, 5% 1,3-butylene glycol, 83% deionized water) was “+”, the turbidity ([2]; 0.2% surfactin sodium salt, sodium edetate 0.001%, calcium 0.1 ppm, solvent 7% Ethanol, 5% glycerin, 5% 1,3-butylene glycol, 83% deionized water) was “-” and the turbidity ([2]; 0.2% surfactin sodium salt, sodium edetate 0.001%, calcium 1 ppm, solvent 7% Ethanol, 5% glycerin, 5% 1,3-butylene glycol, 83% deionized water) was “-”. The turbidity ([2]; 0.2% surfactin sodium salt, sodium edetate 0.001%, calcium 10 ppm, solvent 7% Ethanol, 5% glycerin, 5% 1,3-butylene glycol, 83% deionized water) was “+”, the turbidity ([2]; 0.2% surfactin sodium salt, sodium edetate 0.01%, calcium 0.1 ppm, solvent 7% Ethanol, 5% glycerin, 5% 1,3-butylene glycol, 83% deionized water) was “-” and the turbidity ([2]; 0.2% surfactin sodium salt, sodium edetate 0.01%, calcium 1 ppm, solvent 7% Ethanol, 5% glycerin, 5% 1,3-butylene glycol, 83% deionized water) was “-”. For the same substance, the turbidity ([2]; 0.2% surfactin sodium salt, sodium edetate 0.01%, calcium 10 ppm, solvent 7% Ethanol, 5% glycerin, 5% 1,3-butylene glycol, 83% deionized water) was “-”, the turbidity ([2]; 0.2% surfactin sodium salt, sodium edetate 0.1%, calcium 0.1 ppm, solvent 7% Ethanol, 5% glycerin, 5% 1,3-butylene glycol, 83% deionized water) was “-” and the turbidity ([2]; 0.2% surfactin sodium salt, sodium edetate 0.1%, calcium 1 ppm, solvent 7% Ethanol, 5% glycerin, 5% 1,3-butylene glycol, 83% deionized water) was “-”. For the same substance, the turbidity ([2]; 0.2% surfactin sodium salt, sodium edetate 0.1%, calcium 10 ppm, solvent 7% Ethanol, 5% glycerin, 5% 1,3-butylene glycol, 83% deionized water) was “-”, the turbidity ([2]; 0.2% surfactin sodium salt, sodium edetate 0.2%, calcium 0.1 ppm, solvent 7% Ethanol, 5% glycerin, 5% 1,3-butylene glycol, 83% deionized water) was “-” and the turbidity ([2]; 0.2% surfactin sodium salt, sodium edetate 0.2%, calcium 1 ppm, solvent 7% Ethanol, 5% glycerin, 5% 1,3-butylene glycol, 83% deionized water) was “-”. For the same substance, the turbidity ([2]; 0.2% surfactin sodium salt, sodium edetate 0.2%, calcium 10 ppm, solvent 7% Ethanol, 5% glycerin, 5% 1,3-butylene glycol, 83% deionized water) was “-”, the turbidity ([2]; 0.2% surfactin sodium salt, sodium edetate 1%, calcium 0.1 ppm, solvent 7% Ethanol, 5% glycerin, 5% 1,3-butylene glycol, 83% deionized water) was “-” and the turbidity ([2]; 0.2% surfactin sodium salt, sodium edetate 1%, calcium 1 ppm, solvent 7% Ethanol, 5% glycerin, 5% 1,3-butylene glycol, 83% deionized water) was “-”. For the same substance, the turbidity ([2]; 0.2% surfactin sodium salt, sodium edetate 1%, calcium 10 ppm, solvent 7% Ethanol, 5% glycerin, 5% 1,3-butylene glycol, 83% deionized water) was “-”, the turbidity ([2]; 0.2% surfactin sodium salt, sodium edetate 3%, calcium 0.1 ppm, solvent 7% Ethanol, 5% glycerin, 5% 1,3-butylene glycol, 83% deionized water) was “-” and the turbidity ([2]; 0.2% surfactin sodium salt, sodium edetate 3%, calcium 1 ppm, solvent 7% Ethanol, 5% glycerin, 5% 1,3-butylene glycol, 83% deionized water) was “-”. For the same substance, the turbidity ([2]; 0.2% surfactin sodium salt, sodium edetate 3%, calcium 10 ppm, solvent 7% Ethanol, 5% glycerin, 5% 1,3-butylene glycol, 83% deionized water) was “-”, the turbidity ([2]; Surfactin 0.2% in Solvent 1 (deionized water), calcium 0 ppm) was “-” and the turbidity ([2]; Surfactin 0.2% in Solvent 1 (deionized water), calcium 10 ppm) was “+”. The turbidity ([2]; Surfactin 0.2% in Solvent 1 (deionized water), calcium 20 ppm) was “+”, the turbidity ([2]; Surfactin 0.2% in Solvent 2 (7% Ethanol, 93% deionized water), calcium 0 ppm) was “-” and the turbidity ([2]; Surfactin 0.2% in Solvent 2 (7% Ethanol, 93% deionized water), calcium 10 ppm) was “+”. The turbidity ([2]; Surfactin 0.2% in Solvent 2 (7% Ethanol, 93% deionized water), calcium 20 ppm) was “+”, the turbidity ([2]; Surfactin 0.2% in Solvent 3 (7% Ethanol, 5% glycerin, 5% 1,3-butylene glycol, 83% deionized water), calcium 0 ppm) was “-” and the turbidity ([2]; Surfactin 0.2% in Solvent 3 (7% Ethanol, 5% glycerin, 5% 1,3-butylene glycol, 83% deionized water), calcium 10 ppm) was “+”. The turbidity ([2]; Surfactin 0.2% in Solvent 3 (7% Ethanol, 5% glycerin, 5% 1,3-butylene glycol, 83% deionized water), calcium 20 ppm) was “+”, the “Surface Tension” value [3] was 27.6 mN/m and the turbidity ([4]; 0.2% surfactin sodium salt in Solvent 2 (7% Ethanol, 93% deionized water), magnesium 10 ppm) was “±”. The turbidity ([4]; 0.2% surfactin sodium salt in Solvent 2 (7% Ethanol, 93% deionized water), magnesium 20 ppm) was “±”, the turbidity ([4]; 0.2% surfactin sodium salt in Solvent 3 (7% Ethanol, 5% glycerin, 5% 1,3-butylene glycol, 83% deionized water), magnesium 10 ppm) was “±” and the turbidity ([4]; 0.2% surfactin sodium salt in Solvent 3 (7% Ethanol, 5% glycerin, 5% 1,3-butylene glycol, 83% deionized water), magnesium 20 ppm) was “±”. The turbidity ([4]; 0.2% surfactin sodium salt, sodium citrate 0.0001%, calcium 1 ppm, solvent 7% Ethanol, 5% glycerin, 5% 1,3-butylene glycol, 83% deionized water) was “±” and the turbidity ([4]; 0.2% surfactin sodium salt, sodium edetate 0.0001%, calcium 1 ppm, solvent 7% Ethanol, 5% glycerin, 5% 1,3-butylene glycol, 83% deionized water) was “±”.
